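Exposure lasted 48 hours, with cells grown in 96-well plates and compounds tested at five concentrations. Here, GI50 denotes the concentration required for 50% inhibition of growth. Definition used: TGI = concentration required for complete inhibition of growth.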
Key:
Test in all cases: growth of human tumour cells (NCI), 48 h
SR leukemia = system: SR leukemia
OVCAR-5 ovarian = system: OVCAR-5 ovarian
HS 578T breast = system: HS 578T breast
SK-MEL-2 melanoma = system: SK-MEL-2 melanoma
BT-549 breast = system: BT-549 breast
MDA-N = system: MDA-N
NCI-H226 lung = system: NCI-H226 lung
HCC-2998 colon = system: HCC-2998 colon
UO-31 renal = system: UO-31 renal
MDA-MB-435 = system: MDA-MB-435
K-562 leukemia = system: K-562 leukemia
HT29 colon = system: HT29 colon
UACC-62 melanoma = system: UACC-62 melanoma
TK-10 renal = system: TK-10 renal
HL-60(TB) leukemia = system: HL-60(TB) leukemia
NCI/ADR-RES ovarian = system: NCI/ADR-RES ovarian
RPMI-8226 leukemia = system: RPMI-8226 leukemia
IGROV1 ovarian = system: IGROV1 ovarian
HOP-62 NSCLC = system: HOP-62 NSCLC
MDA-MB-231 breast = system: MDA-MB-231 breast
RXF 393 renal = system: RXF 393 renal
EKVX NSCLC = system: EKVX NSCLC
NCI-H522 lung = system: NCI-H522 lung
UACC-257 melanoma = system: UACC-257 melanoma
HCT-116 colon = system: HCT-116 colon
OVCAR-3 ovarian = system: OVCAR-3 ovarian
CAKI-1 renal = system: CAKI-1 renal
SK-MEL-28 melanoma = system: SK-MEL-28 melanoma
786-0 renal = system: 786-0 renal
DU-145 prostate = system: DU-145 prostate
HCT-15 colon = system: HCT-15 colon
MALME-3M melanoma = system: MALME-3M melanoma
SW-620 colon = system: SW-620 colon
MCF7 breast = system: MCF7 breast
ACHN renal = system: ACHN renal
SNB-75 CNS = system: SNB-75 CNS
SNB-19 CNS = system: SNB-19 CNS
PC-3 prostate = system: PC-3 prostate
NCI-H460 lung = system: NCI-H460 lung
SK-MEL-5 melanoma = system: SK-MEL-5 melanoma
KM12 colon = system: KM12 colon
U251 CNS = system: U251 CNS
A498 renal = system: A498 renal
SN12C renal = system: SN12C renal
NCI-H23 lung = system: NCI-H23 lung
MOLT-4 leukemia = system: MOLT-4 leukemia
OVCAR-4 ovarian = system: OVCAR-4 ovarian
SF-295 CNS = system: SF-295 CNS
OVCAR-8 ovarian = system: OVCAR-8 ovarian
COLO 205 colon = system: COLO 205 colon
SF-268 CNS = system: SF-268 CNS
LOX IMVI melanoma = system: LOX IMVI melanoma
M14 melanoma = system: M14 melanoma
CCRF-CEM leukemia = system: CCRF-CEM leukemia
HOP-92 NSCLC = system: HOP-92 NSCLC
A549 NSCLC = system: A549 NSCLC
SF-539 CNS = system: SF-539 CNS
SK-OV-3 ovarian = system: SK-OV-3 ovarian
T-47D breast = system: T-47D breast

## NC(=O)CC[C@H]1C(=O)N=C(N)N1C(=O)OCc1ccccc1
SR leukemia
  TGI: > 100 µM
OVCAR-5 ovarian
  TGI: > 100 µM
HS 578T breast
  TGI: > 100 µM
SK-MEL-2 melanoma
  TGI: > 100 µM
BT-549 breast
  TGI: > 100 µM
MDA-N
  TGI: > 100 µM
NCI-H226 lung
  TGI: > 100 µM
HCC-2998 colon
  TGI: > 100 µM
UO-31 renal
  TGI: > 100 µM
MDA-MB-435
  TGI: > 100 µM
K-562 leukemia
  TGI: > 100 µM
HT29 colon
  TGI: > 100 µM
UACC-62 melanoma
  TGI: > 100 µM
TK-10 renal
  TGI: > 100 µM
HL-60(TB) leukemia
  TGI: > 100 µM
NCI/ADR-RES ovarian
  TGI: > 100 µM
RPMI-8226 leukemia
  TGI: > 100 µM
IGROV1 ovarian
  TGI: > 100 µM
HOP-62 NSCLC
  TGI: > 100 µM
MDA-MB-231 breast
  TGI: > 100 µM
RXF 393 renal
  TGI: > 100 µM
EKVX NSCLC
  TGI: > 100 µM
NCI-H522 lung
  TGI: > 100 µM
UACC-257 melanoma
  TGI: > 100 µM
HCT-116 colon
  TGI: > 100 µM
OVCAR-3 ovarian
  TGI: > 100 µM
CAKI-1 renal
  TGI: > 100 µM
SK-MEL-28 melanoma
  TGI: > 100 µM
786-0 renal
  TGI: > 100 µM
DU-145 prostate
  TGI: > 100 µM
HCT-15 colon
  TGI: > 100 µM
MALME-3M melanoma
  TGI: > 100 µM
SW-620 colon
  TGI: > 100 µM
MCF7 breast
  TGI: > 100 µM
ACHN renal
  TGI: > 100 µM
SNB-75 CNS
  TGI: > 100 µM
SNB-19 CNS
  TGI: > 100 µM
PC-3 prostate
  TGI: > 100 µM
NCI-H460 lung
  TGI: > 100 µM
SK-MEL-5 melanoma
  TGI: > 100 µM
KM12 colon
  TGI: > 100 µM
U251 CNS
  TGI: > 100 µM
A498 renal
  TGI: > 100 µM
SN12C renal
  TGI: > 100 µM
NCI-H23 lung
  TGI: > 100 µM
MOLT-4 leukemia
  TGI: > 100 µM
OVCAR-4 ovarian
  TGI: > 100 µM
SF-295 CNS
  TGI: > 100 µM
OVCAR-8 ovarian
  TGI: > 100 µM
COLO 205 colon
  TGI: > 100 µM
SF-268 CNS
  TGI: > 100 µM
LOX IMVI melanoma
  TGI: > 100 µM

## COc1cc2oc(=O)ccc2cc1C1OC(=O)C2OC21C (stereo not drawn)
SR leukemia
  TGI: > 100 µM
OVCAR-5 ovarian
  TGI: > 100 µM
HS 578T breast
  TGI: > 100 µM
SK-MEL-2 melanoma
  TGI: > 100 µM
MDA-N
  TGI: > 100 µM
NCI-H226 lung
  TGI: > 100 µM
HCC-2998 colon
  TGI: > 100 µM
UO-31 renal
  TGI: > 100 µM
MDA-MB-435
  TGI: > 100 µM
K-562 leukemia
  TGI: > 100 µM
HT29 colon
  TGI: > 100 µM
UACC-62 melanoma
  TGI: > 100 µM
M14 melanoma
  TGI: > 100 µM
TK-10 renal
  TGI: > 100 µM
HL-60(TB) leukemia
  TGI: > 100 µM
NCI/ADR-RES ovarian
  TGI: > 100 µM
RPMI-8226 leukemia
  TGI: > 100 µM
CCRF-CEM leukemia
  TGI: > 100 µM
IGROV1 ovarian
  TGI: > 100 µM
HOP-62 NSCLC
  TGI: > 100 µM
MDA-MB-231 breast
  TGI: > 100 µM
RXF 393 renal
  TGI: > 100 µM
EKVX NSCLC
  TGI: > 100 µM
UACC-257 melanoma
  TGI: > 100 µM
HOP-92 NSCLC
  TGI: > 100 µM
HCT-116 colon
  TGI: > 100 µM
OVCAR-3 ovarian
  TGI: > 100 µM
CAKI-1 renal
  TGI: > 100 µM
A549 NSCLC
  TGI: > 100 µM
SK-MEL-28 melanoma
  TGI: > 100 µM
786-0 renal
  TGI: > 100 µM
SF-539 CNS
  TGI: > 100 µM
DU-145 prostate
  TGI: > 100 µM
HCT-15 colon
  TGI: > 100 µM
SK-OV-3 ovarian
  TGI: > 100 µM
MALME-3M melanoma
  TGI: > 100 µM
SW-620 colon
  TGI: > 100 µM
MCF7 breast
  TGI: > 100 µM
ACHN renal
  TGI: > 100 µM
SNB-75 CNS
  TGI: > 100 µM
SNB-19 CNS
  TGI: > 100 µM
PC-3 prostate
  TGI: > 100 µM
NCI-H460 lung
  TGI: > 100 µM
SK-MEL-5 melanoma
  TGI: > 100 µM
KM12 colon
  TGI: > 100 µM
T-47D breast
  TGI: > 100 µM
U251 CNS
  TGI: > 100 µM
SN12C renal
  TGI: > 100 µM
NCI-H23 lung
  TGI: > 100 µM
MOLT-4 leukemia
  TGI: > 100 µM
OVCAR-4 ovarian
  TGI: > 100 µM
SF-295 CNS
  TGI: > 100 µM
OVCAR-8 ovarian
  TGI: > 100 µM
COLO 205 colon
  TGI: > 100 µM
SF-268 CNS
  TGI: > 100 µM
LOX IMVI melanoma
  TGI: > 100 µM

## OCc1cn(Cc2cccc(Cl)c2)c2ccccc12
SR leukemia
  GI50: 12.3 µM
  TGI: 44.1 µM
OVCAR-5 ovarian
  GI50: 2.63 µM
  TGI: 8.89 µM
HS 578T breast
  GI50: 9.27 µM
  TGI: 33.7 µM
SK-MEL-2 melanoma
  GI50: 3.16 µM
  TGI: 14.8 µM
BT-549 breast
  GI50: 6.75 µM
  TGI: 23.1 µM
NCI-H226 lung
  GI50: 0.0313 µM
  TGI: 0.222 µM
HCC-2998 colon
  GI50: 12 µM
  TGI: 28.3 µM
UO-31 renal
  GI50: 5.01 µM
  TGI: 41.4 µM
MDA-MB-435
  GI50: 14.8 µM
  TGI: 35.5 µM
K-562 leukemia
  GI50: 1.99 µM
  TGI: 31.9 µM
HT29 colon
  GI50: 1.83 µM
  TGI: 34.3 µM
UACC-62 melanoma
  GI50: < 0.0199 µM
  TGI: 1.5 µM
M14 melanoma
  GI50: 11.3 µM
  TGI: 29.6 µM
TK-10 renal
  GI50: < 0.0145 µM
  TGI: 0.21 µM
HL-60(TB) leukemia
  GI50: 5.38 µM
  TGI: 21.1 µM
NCI/ADR-RES ovarian
  GI50: 13.7 µM
  TGI: 62 µM
RPMI-8226 leukemia
  GI50: 0.632 µM
  TGI: 20 µM
CCRF-CEM leukemia
  GI50: 11 µM
  TGI: > 69.8 µM
IGROV1 ovarian
  GI50: < 0.0271 µM
  TGI: 0.507 µM
HOP-62 NSCLC
  GI50: 9.74 µM
  TGI: 47.3 µM
MDA-MB-231 breast
  GI50: 8.37 µM
  TGI: 31.7 µM
RXF 393 renal
  GI50: 2.43 µM
  TGI: 18 µM
EKVX NSCLC
  GI50: 17.3 µM
  TGI: 56.1 µM
NCI-H522 lung
  GI50: 5.95 µM
  TGI: 22.7 µM
UACC-257 melanoma
  GI50: 0.823 µM
  TGI: 5.61 µM
HOP-92 NSCLC
  GI50: 1.55 µM
  TGI: 17.4 µM
HCT-116 colon
  GI50: < 0.0163 µM
  TGI: 13.5 µM
OVCAR-3 ovarian
  GI50: 0.128 µM
  TGI: 1.1 µM
CAKI-1 renal
  TGI: 1.87 µM
A549 NSCLC
  GI50: 15 µM
  TGI: 65.8 µM
SK-MEL-28 melanoma
  GI50: 20.5 µM
  TGI: 60.9 µM
786-0 renal
  GI50: 5.15 µM
  TGI: 28.1 µM
SF-539 CNS
  GI50: 13.5 µM
  TGI: 30.9 µM
DU-145 prostate
  GI50: 11.6 µM
  TGI: 47.8 µM
HCT-15 colon
  GI50: 5.79 µM
  TGI: 43.8 µM
SK-OV-3 ovarian
  GI50: 4.42 µM
  TGI: 47.4 µM
MALME-3M melanoma
  GI50: 12.3 µM
  TGI: 30.6 µM
SW-620 colon
  GI50: 0.586 µM
  TGI: 33.3 µM
MCF7 breast
  GI50: 0.0488 µM
  TGI: 27.8 µM
ACHN renal
  GI50: 5.63 µM
  TGI: 69.2 µM
SNB-75 CNS
  GI50: 7.7 µM
  TGI: 29 µM
SNB-19 CNS
  GI50: 22.5 µM
  TGI: > 96.5 µM
PC-3 prostate
  GI50: 15.5 µM
  TGI: 39.9 µM
NCI-H460 lung
  GI50: 0.0346 µM
  TGI: 17.9 µM
SK-MEL-5 melanoma
  GI50: 11 µM
  TGI: 23.7 µM
KM12 colon
  GI50: 16.2 µM
  TGI: 33.8 µM
T-47D breast
  GI50: < 0.0208 µM
  TGI: 5.15 µM
U251 CNS
  GI50: 0.865 µM
  TGI: 22.6 µM
A498 renal
  GI50: 0.0142 µM
  TGI: 0.0305 µM
SN12C renal
  GI50: 12 µM
  TGI: 42.6 µM
NCI-H23 lung
  GI50: 13.3 µM
  TGI: 43.5 µM
MOLT-4 leukemia
  GI50: 10.6 µM
  TGI: 44.4 µM
OVCAR-4 ovarian
  GI50: 0.107 µM
  TGI: 11.3 µM
SF-295 CNS
  GI50: 0.145 µM
  TGI: 14.5 µM
OVCAR-8 ovarian
  GI50: 10.9 µM
  TGI: 66.9 µM
COLO 205 colon
  GI50: 0.432 µM
  TGI: 20.3 µM
SF-268 CNS
  GI50: 14 µM
  TGI: 38.1 µM
LOX IMVI melanoma
  GI50: 6.71 µM
  TGI: 25.8 µM
